Tested on: Hut78 T-cells
Assay: Transwell migration of Hut78 T-cells through collagen type-IV
Type: cell-based, human
Details: peptide, absence of SDF-1
Method: FIGS. 4A-4H. […] Briefly, membranes from transwell migration chambers were coated with either native collagen type-IV or denatured collagen type-IV. T-cell variants were incubated with non-specific control peptide CP, or the RGDKGE (SEQ ID NO: 1)-containing collagen peptide (P2) and seed on the coated transwell membranes. T-cells were allowed to migrate in the presence or absence of SDF-1 added to the lower chamber for approximately 1.5 hours. Cell migration was quantified by counting the number of crystal violet stained cells that had migrated through to the underside of the coated membrane. FIG. 4A. Jurkat T-cell migration through denatured collagen type-IV in the presence of non-specific control peptide CP or RGDKGE (SEQ ID NO: 1)-containing collagen peptide P2 with SDF-1. FIG. 4B. Jurkat T-cell migration through native collagen type-IV in the presence of non-specific control peptide CP or RGDKGE (SEQ ID NO: 1)-containing collagen peptide P2 with SDF-1. FIG. 4C. Cem/C1 T-cell migration through denatured collagen type-IV in the presence of non-specific control peptide CP or RGDKGE (SEQ ID NO: 1)-containing collagen peptide P2 with SDF-1. FIG. 4D. Cem/C1 T-cell migration through native collagen type-IV in the presence of non-specific control peptide CP or RGDKGE (SEQ ID NO: 1)-containing collagen peptide P2. FIG. 4E. Hut78 T-cell migration through denatured collagen type-IV in the presence of non-specific control peptide CP or RGDKGE (SEQ ID NO: 1)-containing collagen peptide P2. FIG. 4F. Hut78 T-cell migration through native collagen type-IV in the presence of non-specific control peptide CP or RGDKGE (SEQ ID NO: 1)-containing collagen peptide P2. FIG. 4G Primary CD8+ T-cell migration through denatured collagen type-IV in the presence of non-specific control peptide CP or RGDKGE (SEQ ID NO: 1)-containing collagen peptide P2 with SDF-1. FIG. 4H. CD8+ T-cell migration through native collagen type-IV in the presence of non-specific control peptide CP or RGDKGE (SEQ ID NO: 1)-containing collagen peptide P2 with SDF-1. Data bars indicate the mean cell migration±S.E. *P<0.05.
Given our new observations, and the fact that many tumor types as well as immunosuppressive macrophages can secrete the small soluble RGDKGE (SEQ ID NO: 1) collagen peptide, we next sought to determine whether this soluble collagen peptide could impact T-cell migration through denatured collagen type-IV, a critical ECM component shown to be selectively enriched in tumor vessels. Briefly, membranes from transwell migration chambers were coated with either native collagen type-IV or denatured collagen type-IV. […] Cell migration was quantified following staining cells with crystal violet (6,8). […]

QGPRGDKGE (CQGPRGDKGEC; Synthetic: Synthetic collagen RGD containing peptide P-2) [Peptide P2, synthetic version of the soluble RGDKGE-containing collagen peptide]
Hut78 T-cell migration (denatured collagen type-IV): selectively inhibited | Hut78 T-cell migration (native collagen type-IV): neither the soluble RGDKGE (SEQ ID NO: 1) collagen peptide P2, nor the non-specific control peptide had any significant effect
